# Laboratory results published in patent US10413576B2, “Therapy for use in the treatment of tumors, acquired immunodeficiency syndrome and leukemias by dual immune biostimulation” (priority 2014, dated 2019).
# Entries after “also recorded” stand apart in the source; their conditions may differ.
# Tested on: peripheral blood mononuclear cells (PBMC)
# Experiment: PBMC cell proliferation analysis (BrdU, cytofluorimetry)
# Type: cell-based, human
# Details: PBMC proliferative response vs absence of stimulation (baseline); cut-off P.I. 2
# Description: Next, peripheral blood mononuclear cells were separated. The peripheral blood mononuclear cells (PBMC) were separated by density gradient centrifugation. For this aim, 20 ml of “buffy coat” of healthy donors from the immune-transfusion Service of Ospedale di Borgomanero (Italy) were used for each experiment, thus obtaining an average yield of 200×10^6 PBMC/buffy. The amount of separated cells was determined by cell count in Burker's chambers, using Turk's dye, which allows to discriminating between mononuclear and polymorphonuclear cells. […]
# Then, the cell proliferation analysis was performed. Cell proliferation was assessed with a cytofluorimetric technique by using the bromodeoxyuridine (BrdU) nuclear labeling protocol. […] Following to 16-hour incubation at 37° C. under humidified atmosphere, 5% CO2, the cell proliferation was analyzed by a cytofluorirnetric technique. […] The cells were analyzed within 24 hours from their preparation by using a cytofluorimeter FACScalibur from Becton Dikinson Company and the analysis program CellQuest.
# Results were expressed as cell proliferation index (P.I.), being calculated as ratio of the percentage of proliferating cells in the presence of stimulus and the percentage of the same in the absence of stimulation, A P.I. value greater than 2 was considered acceptable (cut-off value). […]
substance,measurement,value
Phytohaemagglutinin [PHA],cell proliferation index (P.I.),significantly higher; also recorded: greater than the cut-off value
